The text below walks through data of PubChem BioAssay (NCI).

Common to all, as to experiment: inhibition of tumour cell growth, NCI panel, 48 h
For assay [1], the system named is SK-MEL-28 melanoma.
Assay [2] concerns CAKI-1 renal.
Assay [3] concerns OVCAR-3 ovarian.
For assay [4], the system named is SF-539 CNS.
For assay [5], the system named is HCT-15 colon.
Assay [6] deals with MALME-3M melanoma.
Assay [7] deals with NCI-H23 lung.
The subject of assay [8] is UO-31 renal.
Assay [9] relates to RPMI-8226 leukemia.
The subject of assay [10] is PC-3 prostate.

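Assay format: 96-well plates, 48-hour exposure. GI50 is the concentration that inhibits growth by half. At the TGI there is no net growth.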

With `O=C(O)c1ccc2c(c1)C(=O)N(c1ccc(S(=O)(=O)c3ccc(N4C(=O)c5ccc(C(=O)O)cc5C4=O)cc3)cc1)C2=O`, the TGI in assay [1], in assay [2], in assay [3], in [4], in [5] and in assay [6] was over 100 µM each time. The TGI in [7], in assay [8] and in [9] was over 100 µM in each case.
In the case of `CC1(C)c2ccccc2N2C(c3ccccc3)=NOC21C` (stereo unspecified), the TGI in assay [1], in assay [2], in [3], in [4], in assay [5] and in assay [6] was over 100 µM each time. The TGI in [7], in [8] and in [9] was over 100 µM throughout.
On to `C=C1C(=O)O[C@H](c2ccoc2)C[C@@H]1[C@@]1(C)CCCC2(C)C(=O)OCC21` (stereo partly specified), for which the TGI in assay [1], in assay [2], in [3], in [4], in assay [5] and in assay [6] was over 100 µM in each case. The TGI in [7], in [8] and in assay [9] was over 100 µM each time.
On to `CC1OC(n2cc(C(F)(F)F)c(=O)[nH]c2=O)C=CC1=O` (stereo unspecified), for which the TGI in [1] was determined as 38.2 µM; in assay [3] it was 31.9 µM; in assay [4], 35.2 µM; in assay [5], 47 µM; in assay [6], 34.2 µM; in assay [7], 33 µM. The TGI is 33 µM in assay [8] and 37.4 µM in assay [9].
With `C/C=C/C(=O)Oc1cccc2cccnc12`, the TGI in assay [1] is 61.6 µM; in assay [2], 93.8 µM; in assay [3], over 73.6 µM; in [4], 40.1 µM; in assay [5] it was 33.4 µM; in [6], 8.94 µM. The TGI in assay [7] was 29 µM; in assay [8], over 84.7 µM; in [9], over 96.1 µM.
For `CCOC(=O)C1=C(C)NC(=O)NC1c1ccc(OC)cc1OC` (stereo unspecified), the TGI in [2], in assay [3], in [5], in assay [6], in assay [7] and in assay [8] was over 100 µM in each case. Also, the TGI in [9] is over 100 µM.
With `COc1ccc(CN2C(=O)[C@@H]3Cc4c(OC)c(C)c(OC)c(OC)c4[C@H](/C2=C\c2cc(OC)c(OC)c(C)c2OC)N3C(=O)OC(C)C)cc1`, the TGI in assay [1], in [2], in assay [3], in assay [4], in [6] and in [7] was over 100 µM throughout. Besides, the TGI in [8] and in assay [9] was over 100 µM in each case.
With `Nc1cccc2c1-c1c(cccc1[N+](=O)[O-])C2=O`, the TGI in assay [2], in assay [3], in assay [4], in [5], in [6] and in [7] was over 100 µM throughout. Further, the TGI in [8] was 0.469 µM; in assay [9], over 100 µM.
Turning to `N#C/C(=C\c1c(O)cc(O)cc1O)C(N)=O`, the TGI in assay [1], in assay [2], in assay [3], in assay [4], in assay [5] and in assay [6] was over 100 µM throughout. The TGI in [7], in assay [8] and in [9] was over 100 µM in each case.
Regarding `CCC12C=CCN(CCc3c([nH]c4ccccc34)/C=C\1)C2` (stereo unspecified), the TGI in assay [2], in [3], in assay [4], in assay [5], in assay [6] and in assay [7] was over 100 µM each time. Also, the TGI in assay [8] and in [9] was over 100 µM throughout.
On to `Cc1ccccc1NC(=O)Cc1nc2ccccc2s1`, for which the TGI turned out to be 32.9 µM in assay [1]; 36.8 µM in assay [2]; 32 µM in [3]; 34.7 µM in assay [4]; 30 µM in assay [6]; 27.8 µM in assay [7]. In [8], the TGI was found to be 23.7 µM.
Regarding `Cc1ccccc1NC(=O)/C(=N\NC(N)=S)C(C#N)c1ccccc1` (stereo unspecified), the TGI in [1], in assay [3], in assay [4], in assay [5], in assay [6] and in assay [7] was over 100 µM each time. For the same molecule, the TGI in assay [8] and in assay [9] was over 100 µM in each case.
In the case of `Cn1[nH]cc2ccc3nc4ccccc4c(=O)c3c21`, the TGI in assay [1] is over 88.5 µM; in assay [2], 86.5 µM; in assay [3], over 100 µM; in [5], 97.4 µM; in assay [6], 68.7 µM; in [7], 53.4 µM. The TGI in [8] came to 52.3 µM; in [9], 67.6 µM.
For `COC(=O)c1c(O)ccc(O)c1C(C(C)=O)C(C)=O`, the TGI in assay [1], in assay [2], in [3], in assay [4], in assay [5] and in [6] was over 100 µM throughout. The TGI in assay [7], in [8] and in assay [9] was over 100 µM each time.
For `Cc1cccc(NC(=O)C(=O)C(C2OC(=O)c3ccccc32)[N+](=O)[O-])c1C` (stereo unspecified), the TGI in assay [1] stood at 25.1 µM; in [2], 24.2 µM; in assay [3], 5.11 µM; in assay [4], 34.9 µM; in [5] it was 19.7 µM; in [6] it was 10.5 µM. Moreover, the TGI came out at 18.9 µM in assay [7] and 21.4 µM in assay [8].
On to `O=C(/C=C/c1ccc(Cl)c(Cl)c1)c1ccccc1Cl`, for which the TGI turned out to be 22.5 µM in assay [1]; 24.2 µM in [2]; 23 µM in assay [3]; 12.2 µM in assay [4]; 9.97 µM in assay [5]; 30.5 µM in assay [6]. In addition, the TGI was 26.9 µM in [7], 27.8 µM in [8] and over 29.1 µM in assay [9].
Regarding `Cc1ccc2c(c1)-c1c3c(nn1C)-c1ccccc1SC3O2` (stereo unspecified), the TGI in assay [1] is over 100 µM; in [3], over 100 µM; in [4], over 100 µM; in [6], over 100 µM; in [7], over 100 µM; in assay [8], 88.7 µM. In assay [9], the TGI was over 100 µM.
On to `N#Cc1c2ccccc2c(Cc2ccc3c(c2)OCCOCCOCCOCCOCCO3)c2ccccc12`, for which the TGI amounted to 19.4 µM in assay [1]; 22.2 µM in assay [2]; 16.4 µM in assay [3]; 29.7 µM in [4]; 19.2 µM in assay [5]; 20.3 µM in assay [6]. Besides, the TGI in assay [7] is 25.3 µM; in assay [8] it was 15.4 µM; in assay [9], over 100 µM.
In the case of `O=S1(=O)c2ccccc2N(c2ccccc2)c2nnnn21`, the TGI was 92.9 µM in assay [1]; 36.9 µM in [2]; 47.2 µM in assay [3]; over 100 µM in [10]; 35.7 µM in [4]; 37.8 µM in [5]. In addition, the values for the TGI in assay [7] and in assay [8] were 59.6 µM and over 100 µM, respectively.
As for `CN(C)NC(=O)/C(=C/c1ccc(Cl)cc1)NC(=O)c1ccccc1`, the TGI in assay [1], in assay [2], in [3], in assay [4], in [5] and in [6] was over 100 µM each time. The TGI in assay [7], in [8] and in assay [9] was over 100 µM throughout.
For the molecule `CC(=O)[CH-]C(=O)c1ccccc1.CC(=O)[CH-]C(=O)c1ccccc1.Cl.[O-]c1ccnc2ccccc12.[O-]c1ccnc2ccccc12.[Ti+4]`, the GI50 is over 100 µM in [1]; 48.7 µM in assay [2]; over 100 µM in assay [3]; over 100 µM in [4]; over 100 µM in assay [5]; over 100 µM in assay [6]. Further, the GI50 in [7], in assay [8] and in [9] was over 100 µM throughout. Also, the TGI in assay [1], in [2], in assay [3], in assay [4], in [5] and in assay [6] was over 100 µM each time. Also, the TGI in assay [7], in assay [8] and in assay [9] was over 100 µM throughout.
Turning to `C[P+]1(Cc2ccccc2)CCCC1`, the TGI in assay [1], in [3], in assay [4], in [5], in assay [6] and in assay [7] was over 100 µM in each case. Further, the TGI in [8] and in assay [9] was over 100 µM each time.
On to `CN(C)NC1=C([N+](=O)[O-])C=NN(c2ccccc2)C1`, for which the TGI in assay [1] is 3.21 µM; in assay [2] it was 3.64 µM; in assay [3] it was 3.29 µM; in assay [4], 3.31 µM; in assay [5], 3.09 µM; in assay [6] it was 3.63 µM. In addition, the figures for the TGI in assay [7] and in assay [8] were 3.42 µM and 3.19 µM, respectively.
Take `c1ccc(C2=NOC3C4CCC(C4)C23)cc1` (stereo unspecified): the TGI in [1], in [2], in assay [3], in assay [4], in [5] and in [6] was over 100 µM throughout. Besides, the TGI in assay [7], in assay [8] and in assay [9] was over 100 µM in each case.
On to `O=C(Oc1ccccc1)N(c1ccccc1)c1ccccc1`, for which the GI50 was 12.1 µM in assay [2]; 23.7 µM in [3]; 35.1 µM in assay [10]; 30.4 µM in [4]; 31.1 µM in assay [5]; 25 µM in assay [6]. Besides, the GI50 was 21.9 µM in [7] and 15 µM in assay [8]. The TGI was 37.6 µM in assay [2]; over 100 µM in assay [3]; over 100 µM in assay [10]; over 100 µM in assay [4]; over 100 µM in assay [5]; 91.4 µM in [6]. The TGI in [7] was 84.7 µM; in assay [8] it was over 100 µM.
Consider `Cc1ccc(S(=O)(=O)OCOS(=O)(=O)c2ccc(C)cc2)cc1`, for which the TGI in assay [1], in [3], in assay [4], in assay [5], in assay [6] and in assay [7] was over 100 µM each time. For the same molecule, the TGI in [8] and in [9] was over 100 µM throughout.
As for `CC(=O)OCC1OC(n2cccnc2=O)C(OC(C)=O)C1OC(C)=O` (stereo unspecified), the TGI in assay [1], in [2], in [3], in assay [5], in assay [6] and in [8] was over 100 µM throughout. This molecule also returned a TGI in [9] of over 100 µM.
With `CC1(C)C(=O)OC(n2cc(F)c(=O)[nH]c2=O)C1=O` (stereo unspecified), the TGI in [1], in [3], in assay [4], in assay [5], in assay [6] and in [7] was over 100 µM each time. Also, the TGI in assay [8] and in assay [9] was over 100 µM in each case.
Turning to `CCOC(=O)c1cc(=O)n(C)c(=O)n1C`, the TGI in assay [1], in [2], in assay [3], in assay [4], in assay [5] and in assay [6] was over 100 µM in each case. Besides, the TGI in [7] and in assay [8] was over 100 µM throughout.
